{
  "source": "paper PMC6838142",
  "about": "“Nano-Antagonist Alleviates Inflammation and Allows for MRI of Atherosclerosis” (Nanotheranostics, 2019)",
  "key": {"recombinant CCR2 protein": {"system": "recombinant CCR2 protein", "assay": "CCR2 receptor binding of nanoparticles to immobilized recombinant CCR2", "design": "species or system human", "details": "recombinant CCR2 2 µg/mL coated; nanoparticles 4 h room temperature; fluorescence 550/620 nm", "experimental": "A sandwich-type plate-based immunoassay was developed in-house to study CCR2 receptor binding. Black opaque plates (for fluorescence studies) or clear high protein binding plates (for absorbance studies) were coated with recombinant CCR2 protein at 2 µg/mL in PBS overnight at 4 °C. Plates were washed 5 times with PBS and treated as follows: for nanoparticles binding, varying concentrations of fluorescent nanoparticles or vehicle control (see above) in PBS were added to the opaque plates and incubated for 4 h at room temperature. For peptide competition/binding studies, recombinant human CCL2 was added in clear plates at varying concentrations in PBS simultaneously with a large excess of peptides (1 mM final concentration, dissolved in dimethylformamide) and incubated for 1 h at room temperature. All plates were washed 5 times with PBS and fluorescence in opaque plates was read at 550 nm excitation and 620 nm emissions. […] Clear plates were washed and incubated with 0.1 µg/mL streptavidin-HRP. Finally, clear plates were washed and incubated with SigmaFast OPD reagent in the presence of hydrogen peroxide-urea, as per the manufacturer's instructions. After 30 min incubation period at 37 °C, the plates were read at 450 nm on a multiwell plate reader as described above. Fluorescence emission values and OD at 450 nm were plotted against concentration using a 4-parametric fit."}, "CCR2": {"system": "CCR2", "assay": "Uptake in macrophages from CCR2 knockout mice", "format": "cell-based, mouse", "details": "CCR2 KO vs wild-type, carboxyfluorescein-labeled", "experimental": "Supplementary Figure S6. A) Separate channels for main manuscript Figure 1B.\nUptake of carboxyfluorescein-labeled CCTV or VTCC in cultured bone marrow derived macrophages from B)\nCCR2 knockout (KO, B6.129S4-Ccr2 /J) or wild-type (WT) mice; C) wild-type mouse-derived macrophages\npre-treated (6 h) with CCR2 inhibitor BMS CCR2 22 (10 nM) or DMSO as vehicle control. C)\n(1 picture or pasted object on this page, not shown here)"}, "RAW 264.7 cells": {"system": "RAW 264.7 cells", "assay": "Gene expression analysis in LPS-stimulated RAW cells", "format": "cell-based, mouse", "details": "1 µM, 24 h, LPS 100 ng/mL; vs VTCC or vehicle", "experimental": "RAW 264.7 cells were seeded in 24-well plates at 1.0 x 10^5 per well with LPS (100 ng/mL) and allowed to attach overnight. After a quick wash with PBS, RNA was isolated from cells following the Trizol method. Next, RNA was reverse transcribed to cDNA, and amplified by the polymerase chain reaction (PCR) using reagents from cDNA synthesis kit, SYBR Green PCR Master Mix and target-specific TaqMan probes as indicated in Supplementary Table S1. Roche LightCycler 480 II was used to perform quantification analysis of gene expression using the ΔΔCT method as previously described,[13],[16]."}, "BMDMs": {"system": "BMDMs", "assay": "CCL2-induced actin polymerization in BMDMs", "format": "cell-based", "details": "6 h pre-treatment, 500 nM recombinant mouse CCL2; 5 µM; phalloidin staining", "experimental": "Next, cells were washed with PBS and recombinant mouse CCL2 was added to a final concentration of 500 nM. Then, cells were incubated for varying times (indicated in Figure 2G), after which they were immediately placed on ice and washed 3 times with cold PBS. Actin polymerization was then visualized following staining with phalloidin Alexa Fluor 633, according to the manufacturer's instructions."}, "NLRP3 inflammasome": {"system": "NLRP3 inflammasome", "assay": "Inflammasome activation immunoblot in BMDMs", "format": "cell-based, mouse", "details": "LPS 50 ng/mL, nigericin 5 µM", "experimental": "Immunoblotting was performed as previously described with the following modifications. Briefly, cell lysates were obtained in SDS lysis buffer consisting of 2% SDS, 50 mM Tris-HCl (pH 6.8), 100 mM DTT, 5% Ficoll 400, 0.0001% bromophenol blue and a cocktail of protease inhibitors. Lysates were sonicated on ice before heating at 97 °C for 7 min to completely denature the protein. Protein concentration was determined using IR spectroscopy (which is insensitive to high SDS and DTT concentrations) with a Millipore DirectDetect spectrometer. Lysates were equally loaded at 10-15 µg per lane on BioRad TGX Criterion gels (4-15%) and resolved at 300 V in Tris-Glycine running buffer. Proteins were transferred on nitrocellulose membranes using the BioRad TransBlot turbo according to the manufacturer's instructions. Membranes were blocked in fish serum (Aqua Block) or 5% nonfat dry milk in TBS-T (0.05% Tween 20) and probed overnight at 4 °C with primary antibodies as indicated in Supplementary Table S1. The membranes were washed in TBS-T and incubated with secondary antibodies for 1 h at room temperature. After washing, semi-quantitative visualization of the proteins of interest was enabled using an enhanced chemiluminescence reagent as previously described and the Azure C400 western blot imaging system.\nBMDMs or J774 cells were plated in 48-well plates at 2 x 10^5 per well. Next day, the medium was changed to Opti-MEM (100 μL per well) without serum and the cells were allowed to equilibrate for 3 h. Next, the cells were pretreated with the indicated concentrations of nanoparticles or controls for 3 h followed by the addition of LPS to some wells to the final LPS concentration of 50 ng/mL. LPS priming continued for another 2 h, following which DMSO (vehicle), Nigericin (5 μM) or adenosine triphosphate (ATP) (1 mM) were added to some wells. Cells were incubated for an additional 30 min and cell culture supernatants were collected on ice. Cells were washed with cold PBS once and lysed/processed as described in immunoblotting section. […]"}},
  "note": "Entries after “also recorded” stand apart in the source; their conditions may differ.",
  "data": [
    {"substance": "CCTV", "values": [
      {"measurement": "binding to immobilized CCR2", "setting": "recombinant CCR2 protein", "value": "bound to immobilized recombinant receptor protein in a dose dependent manner; also recorded: significant, dose-dependent binding"},
      {"measurement": "uptake in CCR2 knockout macrophages", "setting": "CCR2", "value": "drastically reduced"},
      {"measurement": "Il1b mRNA expression", "setting": "RAW 264.7 cells", "value": "significantly downregulated"},
      {"measurement": "Il6 mRNA expression", "setting": "RAW 264.7 cells", "value": "significantly downregulated"},
      {"measurement": "Nos2 mRNA expression", "setting": "RAW 264.7 cells", "value": "significantly downregulated"},
      {"measurement": "Tnf mRNA expression", "setting": "RAW 264.7 cells", "value": "unaffected"},
      {"measurement": "actin polymerization", "setting": "BMDMs", "value": "significantly inhibited actin polymerization"},
      {"measurement": "IL-1β and its mature form in supernatants (immunoblot)", "setting": "NLRP3 inflammasome", "value": "dose-dependently inhibited the production of IL-1β and its mature form"},
      {"measurement": "NLRP3 protein", "setting": "NLRP3 inflammasome", "value": "markedly decreased, but only in nigericin-stimulated, CCTV-treated cells"},
      {"measurement": "cleaved caspase 1 levels", "setting": "NLRP3 inflammasome", "value": "reduced"},
      {"measurement": "toxicity of SH-conjugated nanoparticles", "setting": "RAW cells", "value": "very low toxicity"}
    ]}
  ]
}
